Measured values reported in the supplement of paper PMC10307832.

Legend:
Assay in all cases: relative viability (nuclei count vs DMSO), 5 days (fraction); higher = more cells survive
LU99A = tested on: LU99A
In short: (§1)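 Nuclei were stained with Hoechst during a one-step fixation (final 0.05% Triton X-100, 1% formaldehyde, 1 ug/ml Hoechst) carried out 5 days after dosing, then counted on 4× images. The cells, lung cancer lines in 1536-well plates, had been dosed by pin tool the day after seeding with one drug alone or a fixed anchor-drug dose plus five library-drug doses (not always all listed) in √10 steps. Relative viability is the nuclei count in treated wells divided by that in vehicle wells, and each value is the median of duplicate plates.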

NCI-H1395 = tested on: NCI-H1395
In short: as §1

HCC-15 = tested on: HCC-15
In short: as §1

NCI-H647 = tested on: NCI-H647
In short: as §1

NCI-H1944 = tested on: NCI-H1944
In short: as §1

NCI-H520 = tested on: NCI-H520
In short: as §1

CAL-12T = tested on: CAL-12T
In short: as §1

NCI-H1666 = tested on: NCI-H1666
In short: as §1

SK-LU-1 = tested on: SK-LU-1
In short: as §1

LC-2-ad = tested on: LC-2-ad
In short: as §1

PC-3 [JPC-3] = tested on: PC-3 [JPC-3]
In short: as §1

NCI-H1734 = tested on: NCI-H1734
In short: as §1

NCI-H1975 = tested on: NCI-H1975
In short: as §1

H3255 = tested on: H3255
In short: as §1

PC-14 = tested on: PC-14
In short: as §1

NCI-H2228 = tested on: NCI-H2228
In short: as §1

NCI-H1993 = tested on: NCI-H1993
In short: as §1

HCC-366 = tested on: HCC-366
In short: as §1

COR-L 105 = tested on: COR-L 105
In short: as §1

HARA = tested on: HARA
In short: as §1

NCI-H838 = tested on: NCI-H838
In short: as §1

NCI-H3122 = tested on: NCI-H3122
In short: as §1

Cc1cnc(-c2cnc(NCCNc3ccc(C#N)cn3)nc2-c2ccc(Cl)cc2Cl)[nH]1 + CC1(C)CCC(c2ccc(Cl)cc2)=C(CN2CCN(c3ccc(C(=O)NS(=O)(=O)c4ccc(N[C@H](CCN5CCOCC5)CSc5ccccc5)c(S(=O)(=O)C(F)(F)F)c4)cc3)CC2)C1 [Navitoclax] (partner 0.5 µM)
relative viability (LU99A; first compound 0.08 µM): 0.858 | relative viability (LU99A; first compound 0.253 µM): 0.808 | relative viability (LU99A; first compound 0.8 µM): 0.794 | relative viability (LU99A; first compound 2.53 µM): 0.823 | relative viability (NCI-H1395; first compound 0.08 µM): 1.25 | relative viability (NCI-H1395; first compound 0.253 µM): 1.15 | relative viability (NCI-H1395; first compound 0.8 µM): 1.19 | relative viability (NCI-H1395; first compound 2.53 µM): 1.15 | relative viability (HCC-15; first compound 0.08 µM): 0.737 | relative viability (HCC-15; first compound 0.253 µM): 0.622 | relative viability (HCC-15; first compound 0.8 µM): 0.65 | relative viability (HCC-15; first compound 2.53 µM): 0.578 | relative viability (NCI-H647; first compound 0.08 µM): 1.19 | relative viability (NCI-H647; first compound 0.253 µM): 0.718 | relative viability (NCI-H647; first compound 0.8 µM): 1.07 | relative viability (NCI-H647; first compound 2.53 µM): 0.723 | relative viability (NCI-H1944; first compound 0.08 µM): 1.03 | relative viability (NCI-H1944; first compound 0.8 µM): 0.992 | relative viability (NCI-H1944; first compound 2.53 µM): 1 | relative viability (NCI-H520; first compound 0.08 µM): 1.22 | relative viability (NCI-H520; first compound 0.253 µM): 1.13 | relative viability (NCI-H520; first compound 0.8 µM): 1.24 | relative viability (NCI-H520; first compound 2.53 µM): 1.13 | relative viability (CAL-12T; first compound 0.08 µM): 1.29 | relative viability (CAL-12T; first compound 0.253 µM): 1.15 | relative viability (CAL-12T; first compound 0.8 µM): 1.18 | relative viability (CAL-12T; first compound 2.53 µM): 1.06 | relative viability (NCI-H1666; first compound 0.08 µM): 0.921 | relative viability (NCI-H1666; first compound 0.253 µM): 0.868 | relative viability (NCI-H1666; first compound 0.8 µM): 0.835 | relative viability (NCI-H1666; first compound 2.53 µM): 1.26 | relative viability (SK-LU-1; first compound 0.08 µM): 0.976 | relative viability (SK-LU-1; first compound 0.253 µM): 0.807 | relative viability (SK-LU-1; first compound 0.8 µM): 1.2 | relative viability (SK-LU-1; first compound 2.53 µM): 0.692 | relative viability (LC-2-ad; first compound 0.08 µM): 0.53 | relative viability (LC-2-ad; first compound 0.8 µM): 0.452 | relative viability (LC-2-ad; first compound 2.53 µM): 0.5 | relative viability (PC-3 [JPC-3]; first compound 0.08 µM): 0.81 | relative viability (PC-3 [JPC-3]; first compound 0.253 µM): 0.71 | relative viability (PC-3 [JPC-3]; first compound 0.8 µM): 0.809 | relative viability (PC-3 [JPC-3]; first compound 2.53 µM): 0.729 | relative viability (NCI-H1734; first compound 0.08 µM): 0.946 | relative viability (NCI-H1734; first compound 0.253 µM): 0.784 | relative viability (NCI-H1734; first compound 0.8 µM): 0.829 | relative viability (NCI-H1734; first compound 2.53 µM): 0.788 | relative viability (NCI-H1975; first compound 0.08 µM): 1.12 | relative viability (NCI-H1975; first compound 0.253 µM): 0.982 | relative viability (NCI-H1975; first compound 0.8 µM): 0.933 | relative viability (NCI-H1975; first compound 2.53 µM): 0.567 | relative viability (H3255; first compound 0.08 µM): 0.413 | relative viability (H3255; first compound 0.253 µM): 0.424 | relative viability (H3255; first compound 0.8 µM): 0.508 | relative viability (H3255; first compound 2.53 µM): 0.361 | relative viability (PC-14; first compound 0.08 µM): 1.1 | relative viability (PC-14; first compound 0.253 µM): 0.883 | relative viability (PC-14; first compound 0.8 µM): 1 | relative viability (PC-14; first compound 2.53 µM): 0.895 | relative viability (NCI-H2228; first compound 0.08 µM): 0.854 | relative viability (NCI-H2228; first compound 0.253 µM): 1.14 | relative viability (NCI-H2228; first compound 0.8 µM): 0.796 | relative viability (NCI-H2228; first compound 2.53 µM): 0.536 | relative viability (NCI-H1993; first compound 0.08 µM): 0.976 | relative viability (NCI-H1993; first compound 0.253 µM): 0.906 | relative viability (NCI-H1993; first compound 0.8 µM): 0.996 | relative viability (NCI-H1993; first compound 2.53 µM): 0.882 | relative viability (HCC-366; first compound 0.08 µM): 1.04 | relative viability (HCC-366; first compound 0.253 µM): 1.02 | relative viability (HCC-366; first compound 0.8 µM): 1.09 | relative viability (HCC-366; first compound 2.53 µM): 0.89 | relative viability (COR-L 105; first compound 0.08 µM): 0.875 | relative viability (COR-L 105; first compound 0.253 µM): 0.686 | relative viability (COR-L 105; first compound 0.8 µM): 1.54 | relative viability (COR-L 105; first compound 2.53 µM): 0.558 | relative viability (HARA; first compound 0.08 µM): 1.13 | relative viability (HARA; first compound 0.253 µM): 1.12 | relative viability (HARA; first compound 0.8 µM): 1.16 | relative viability (HARA; first compound 2.53 µM): 1.19 | relative viability (NCI-H838; first compound 0.08 µM): 1.21 | relative viability (NCI-H838; first compound 0.253 µM): 1.11 | relative viability (NCI-H838; first compound 0.8 µM): 1.44 | relative viability (NCI-H838; first compound 2.53 µM): 1.6 | relative viability (NCI-H3122; first compound 0.08 µM): 0.988 | relative viability (NCI-H3122; first compound 0.253 µM): 0.881 | relative viability (NCI-H3122; first compound 0.8 µM): 0.977 | relative viability (NCI-H3122; first compound 2.53 µM): 0.994
